According to US8940716B2, “Bicyclic heteroaryl compounds as GPR119 modulators” (Bristol-Myers Squibb Company, priority 2010, dated 2015):
Read-outs that look alike come from different tables or passages of the source.

What was measured:
[1] = tested on: plasma glucose in male C57BL/6J mice; assay: Mouse oral glucose tolerance test; type: in vivo
Experimental: Twenty four (24) male C57BL/6J mice (8-10 weeks old, average weight 28 g) were randomized into 4 groups (1 mouse/cage) of 6 mice per group based on fed plasma glucose and body weight. Prior to initiating the study, mice were fasted overnight and the next morning they were weighed and placed in the experimental lab. After 30 min in the environment, the mice were bled via tail tip at −60 min and immediately given their first oral administration of vehicle (40% PEG400, 10% Cremophor EL, 50% water) or compound solutions (5 ml/kg). At time 0 the mice were bled and given 50% glucose (2 g/kg) to initiate the oral glucose tolerance test (oGTT). The mice were bled 30, 60 and 120 min after the glucose load. Blood samples were drawn into potassium EDTA, placed on ice during the study and subsequently centrifuged for 10 min at 3000 rpm at 4° C. Plasma samples were diluted 11-fold for glucose analysis in the COBAS MIRA® System (Roche Diagnostics). Area under the curve was calculated from the plasma glucose time course data using the trapezoid rule with fasting plasma glucose as the baseline (GraphPad Prism Software). The statistical significance of the changes in the glucose AUCs resulting from the different treatments was determined by one-way ANOVA followed by Dunnett's test using the vehicle group as the control (JMP software, release 5.1.2). […]

[2] = biological target: T1, human-mouse chimeric GPR119 (Homo sapiens, UniProt Q8TDV5, A235T/C313R/C323Y/E253K/F304I/F307L/G211A/G245S/H255C/K284R/L224V/L258Q/L288Q/L301F/P218V/P318T/Q252H/R262K/S214P/S219N/S228A/S309P/S322A/T217S/T239S/V227I/V300F); assay: Tet-inducible cAMP assay; type: cell-based
T1 construct: the first 198 amino acids of human GPR119; the C-terminal 137 amino acids of the mouse receptor; expressed in transfected cells
T1 sequence (Q8TDV5 with tags, fused parts or gaps G211A/S214P/T217S/P218V/S219N/L224V/V227I/S228A/A235T/T239S/G245S/Q252H/E253K/H255C/L258Q/R262K/K284R/L288Q/V300F/L301F/F304I/F307L/S309P/C313R/P318T/S322A/C323Y): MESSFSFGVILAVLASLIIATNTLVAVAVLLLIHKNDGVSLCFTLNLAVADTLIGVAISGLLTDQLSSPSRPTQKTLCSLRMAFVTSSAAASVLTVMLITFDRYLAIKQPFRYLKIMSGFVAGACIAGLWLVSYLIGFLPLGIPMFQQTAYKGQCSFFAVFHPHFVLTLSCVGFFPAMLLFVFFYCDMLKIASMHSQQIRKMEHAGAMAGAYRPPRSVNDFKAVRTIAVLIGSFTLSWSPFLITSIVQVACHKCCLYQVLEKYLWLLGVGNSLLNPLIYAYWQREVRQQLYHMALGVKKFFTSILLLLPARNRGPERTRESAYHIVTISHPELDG
Experimental: The in vitro modulation of recombinant human GPR119 was determined as follows.
A human-mouse chimeric GPR119 expression construct encoding 3 copies of the FLAG epitope tag, the first 198 amino acids of human GPR119 and the C-terminal 137 amino acids of the mouse receptor was cloned into a tetracycline inducible vector pcDNA5/FRT/TO (Invitrogen #V6520-20), which includes a hygromycin-resistance marker. Tightly controlled receptor expression was achieved by stable integration of this construct into the genome of a specific host cell line, Flp-In-T-Rex-HEK293, expressing the tetracycline repressor (Invitrogen). Once a stable hygromycin-resistant cell line was generated, the cells were maintained at 37° C. in a humidified 5% CO2 atmosphere in culture medium consisting of Dulbecco's modified Eagle's medium (DMEM; Invitrogen #11960) supplemented with 2 mM L-glutamine, 10% fetal bovine serum, 200 μg/ml hygromycin B, and 15 μg/ml blasticidin.
Forty-eight hours prior to the cAMP accumulation assay, cells stably expressing the chimeric human/mouse GPR119 construct were seeded at a density of 4×10^3 cells/well in 384 well poly-D-lysine coated solid white plates (BD #35-6661) and grown at 37° C. in a humidified 5% CO2 atmosphere in culture medium supplemented with 1 μg/ml tetracycline to induce expression of the receptor. On the day of the assay, medium was removed and cells were incubated for 50 min. at 37° C. in a humidified 5% CO2 atmosphere in 20 μl/well of assay buffer (phosphate-buffered saline with Ca^2+ and Mg^2+, 12 mM glucose, 0.1 mM isobutyl-methyl-xanthine, 0.1% fatty-acid free bovine serum albumin) with the desired concentration of compound added from a concentrated stock dissolved in dimethyl sulfoxide (DMSO) to give a final concentration of 1% DMSO in the assay. cAMP accumulation was measured using the CisBio homogeneous time resolved fluorescence (HTRF) assay kit (#62AM2PEC) following the manufacturer's protocol. Briefly, 10 μl each of the cAMP-HTRF fluorescence detection reagents were added to each well, and the samples were incubated for 40 min. at room temperature. Fluorescence was excited at 320 nm and measured at 665 and 620 nm using the Envision instrument (Perkin Elmer), the fluorescence ratio of 665/620 was calculated and converted to nanomolar concentrations of cAMP in each well by interpolation from a cAMP standard curve. The concentration-response curves and EC50 values were calculated with a four parameter logistic curve fit equation utilizing Excel/XLfit software (Microsoft and IDBS). The EC50 value was calculated as the concentration of agonist which increased the cAMP concentration to a value halfway between the baseline and the maximum.
Compounds of the present invention were tested in the Tet-inducible cAMP assay described immediately above and the results shown in Table 2 below were obtained.

[3] = cAMP accumulation (HTRF), Flp-In-T-Rex-HEK293 cells expressing chimeric human/mouse GPR119, 50 min incubation, read-out: GPR119 EC50

Structure (SMILES) | EC50 [2, 3] | also measured
CCCc1cnc(N2CCC(Oc3nc4ccc(C5=CCN(S(=O)(=O)CCC)CC5)cc4s3)CC2)nc1 [Example 1, 2-(1-(5-Propylpyrimidin-2-yl)piperidin-4-yloxy)-6-(1-(propylsulfonyl)-1,2,3,6-tetrahydropyridin-4-yl)benzo[d]thiazole] |  | Glucose Lowering (%) ([1]; change in plasma glucose AUC vs vehicle at the minimally efficacious dose, oGTT, oral): −39%; Minimally efficacious Dose ([1]; oral administration 60 min before glucose load (2 g/kg), fasted male C57BL/6J mice): 10 mg/kg
CCCc1cnc(N2CCC(Oc3nc4ccc(C5=CCN(S(=O)(=O)CCCCCCP(=O)(OC)OC)CC5)cc4s3)CC2)nc1 [Example 177] |  | EC50 [2]: 9.7 nM
CCCc1cnc(N2CCC(Oc3nc4ccc(C5=CCN(c6ncc(C)s6)CC5)cc4s3)CC2)nc1 [Example 61] | 547 nM | 
CCCS(=O)(=O)N1CC=C(c2ccc3nc(OC4CCN(S(C)(=O)=O)CC4)sc3c2)CC1 [Example 111] | 228 nM | 

Now from value to compound, other results behind:

EC50 [2, 3] | Structure (SMILES) | also measured
169 nM | CC(C)(O)CCS(=O)(=O)N1CC=C(c2ccc3nc(OC4CCN(S(=O)(=O)CC(F)(F)F)CC4)sc3c2)CC1 [Example 205] | 
22.1 nM | CCCc1cnc(N2CC[C@H](Oc3nc4ccc(C5=CCN(S(C)(=O)=O)CC5)cc4s3)C2)nc1 [Example 116] | 
20.4 nM | Cc1nnc(N2CCC(Oc3nc4ccc(-c5ccc(S(C)(=O)=O)cc5)cc4s3)CC2)s1 [Example 294] | 
